# Where two headings read alike, the source gives them in different places.
# How the values were obtained:
# Vero cells = test: MTT colorimetric cell toxicity assay; type: cell-based, African green monkey
# Description: Cell toxicity of the tolans 4,4′-dihydroxytolan (“Tolan-5”), 3,4′,5-trihydroxytolan (“Tolan-10”) and 4-hydroxy-4′-trifluoromethyltolan (“Tolan-11”) was determined using an MTT assay. In this assay, cells are exposed to MTT, 3-(4,5-dimethylthiazol-2-yl)-2,5-diphenyltetrazolium bromide, which is taken into the cells and reduced by mitochondrial dehydrogenase to a purple formazan, a large molecule which is unable to pass through intact cell membranes, and therefore accumulates in healthy cells. The ability of cells to reduce MTT is an indication of mitochondrial integrity and activity, which may be interpreted as a measure of viability. Solubilization of the cells results in the liberation of the product which can readily be detected spectrophotometrically.
# Various concentrations of Tolan-5, Tolan-10 and Tolan-11 were added to 96 well tissue culture plates that had been seeded with Vero cells. The plates were then incubated at 37° C. in 5% CO2/95% air for 24, 48 and 72 hours. At the end of each time point, 50 μl of MTT (1 mg/ml) was added to the tissue culture plates which were then incubated for an additional four hours. At the end of that time, dimethyl sulfoxide (DMSO) was added to dissolve the cells and formazan, and the plates were read spectrophotometrically at 540 nm. […] Presented in Table I below are the toxicity results for Tolan-5, Tolan-10, and Tolan-11 measured at 24, 48 and 72 hours of treatment.
# HSV-1 [1] = test: HSV-1 skin scratch infection in hairless mice, topical treatment (Example 10); type: in vivo, SKH-1 hairless mice; settings: for severity of HSV lesions: topical, three times a day for five days, versus untreated or DMSO only; for animals that perished within 11 days after infection: controls 50% died
# Description: Female SKH-1 hairless mice 4–5 weeks old were lightly anesthetized and a scratch approximately 2–3 mm long and 0.25 mm deep was made on the lateral dorsal aspect of the neck. The scratch was infected with 10^6 plaque forming units of HSV-1. One hour later, the infected scratch area was treated with a 5% or 10% solution of Tolan-10 in DMSO. This treatment was repeated three times a day for five days. There were at least six mice in each treatment group. Untreated mice and mice treated with DMSO only were used as controls. Beginning on day 1 and continuing for 10–11 days, the scratch site was examined daily for evidence of an HSV infection and scored according to the following schedule: • 0=no visible change on skin by scratch • 1+=papules around scratch • 2+=papules around scratch ulcerate with scab formation • 3+=ulcerative zosterform spread along peripheral nerves to flank of animal • 4+=ulcerative lesions open on flank • 5+=death/sacrifice The data was grouped according to treatment and statistically analyzed for significance.
# HSV-1 [2] = test: Inhibition of HSV-1 replication in vitro, plaque assay (Example 9); type: cell-based
# Description: Tissue culture cells were infected with HSV-1 and incubated in solutions containing Tolan-5, Tolan-10 and Tolan-11. The concentrations used ranged from one-half to three-quarters of the calculated CD50 for the respective tolan at 48 hours of treatment. Specifically, Vero cells were infected with HSV-1 at a multiplicity of infection of one for one hour. At the end of that time, the cultures were rinsed with media and fresh media containing various concentration of the respective tolan were added. Infected control cultures were incubated in media lacking hydroxylated tolan. At 1, 24, 48, and 72 hours after infection, samples were frozen at −70° C. until assayed for new virus production. Virus production was quantified by the plaque assay for each time point of infection. The results, which are expressed as plaque forming units per milliliter (pfu/ml).
# Neisseria meningiditis = test: Growth inhibition on agar plates; type: cell-based
# Description: (§1) Various concentrations of the trihydroxytolan Tolan-10 were incorporated into chocolate agar plates that were prepared using standard procedures. The trihydroxylated tolan was first dissolved in DMSO and medium and then added to liquid chocolate agar, which was then poured into petri plates and allowed to solidify. The highest concentration of DMSO in the agar was 0.5%. Control plates containing chocolate agar and DMSO at a final concentration of 0.5% were also prepared.
# (§2) 10 μl aliquots of the suspension were spread evenly across the surface of solidified control chocolate agar lacking tolan and the surface of solidified chocolate agar containing Tolan-10 at final concentrations ranging from 1 to 125 μg/ml. Thereafter, the agar plates were incubated at 37° C. with or without 5% CO2. All plates were visually examined for growth of the bacterium 24 hours later to determine the concentration of the tri-hydroxylated tolan that inhibits growth by 50% (MIC50) as well as the concentration which inhibits any visible growth (MIC100).
# (§3) The effect of the same concentrations of Tolan-10 on the growth of Escherichia coli, Staphylococcus aureus, Streptococcus pyogenes, Pseudomonas aeruginosa, Neisseria meningiditis and Candida albicans was also determined. […] The IC50 value of the tri-hydroxylated tolan for this bacterium at 24 hours of treatment was 50 μg/ ml and the IC100 value was 100 μg/ml. In contrast, Tolan 10, at the highest concentration tested, had no effect on the other microorganisms listed.
# Pseudomonas aeruginosa = test: Growth inhibition on agar plates; type: cell-based
# Description: as §1, §2, §3
# Staphylococcus aureus = test: Growth inhibition on agar plates; type: cell-based
# Description: as §1, §2, §3
# Escherichia coli = test: Growth inhibition on agar plates; type: cell-based
# Description: as §1, §2, §3
# Candida albicans = test: Growth inhibition on agar plates; type: cell-based
# Description: as §1, §2, §3
# Streptococcus pyogenes = test: Growth inhibition on agar plates; type: cell-based
# Description: as §1, §2, §3
# [3] = system: Neisseria gonorrhea CDC 98; test: Growth inhibition on chocolate agar plates; type: cell-based
# Description: as §1
# Neisseria gonorrhea CDC 98 was obtained from Difco Laboratories. The authenticity of the bacterium was confirmed utilizing standard microbiological techniques of identification. Cultures of the bacterial isolate were inoculated onto fresh plates of solidified chocolate agar and then 24 hours later, a suspension was made from isolated colonies.
# as §2
structure (smiles),measurement,setting,value
"Oc1ccc(C#Cc2cc(O)cc(O)c2)cc1 [Tolan-10, 3,4′,5-trihydroxytolan]",toxicity (in words),Vero cells,very little toxicity
same,CD50,Vero cells; 24 hours,>200 µM
same,CD50,Vero cells; 48 hours,>200 µM
same,CD50,Vero cells; 72 hours,>200 µM
same,estimated CD50,Vero cells; summary of Table 1,> 200 μm
same,severity of HSV lesions,HSV-1 [1]; 5% solution in DMSO,significantly reduced the severity of HSV lesions
same,animals that perished within 11 days after infection,HSV-1 [1]; 5%,none
same,severity of HSV lesions,HSV-1 [1]; 10% solution in DMSO,significantly reduced the severity of HSV lesions
same,animals that perished within 11 days after infection,HSV-1 [1]; 10%,none
same,effectiveness of 10% compared with 5%,"HSV-1 [1]; particularly days 6–10, not significantly different",slightly more effective than 5% Tolan-10
same,effectiveness against the virus over concentrations,HSV-1 [2]; 350 μm to 175 μm,equally effective against the virus at all concentrations
same,HSV-1 production,"HSV-1 [2]; Vero cells, moi 1, up to 72 hours",inhibited HSV-1 production
same,IC50,"Neisseria meningiditis; Neisseria, N. meningitides",> 125 µg/mL
same,effect on growth,Neisseria meningiditis; highest concentration tested,no effect
same,IC100,Pseudomonas aeruginosa; P. aeruginosa,>125 mg/L
same,IC50,"Pseudomonas aeruginosa; Pseudomonas aeruginosa, P. aeruginosa",> 125 µg/mL
same,effect on growth,Pseudomonas aeruginosa; highest concentration tested,no effect
same,IC100,Staphylococcus aureus; S. aureus,>125 mg/L
same,IC50,"Staphylococcus aureus; Staphylococcus aureus, S. aureus",> 125 µg/mL
same,effect on growth,Staphylococcus aureus; highest concentration tested,no effect
same,IC100,Escherichia coli; E. coli,>125 mg/L
same,IC50,"Escherichia coli; Escherichia coli, E. coli",> 125 µg/mL
same,effect on growth,Escherichia coli; highest concentration tested,no effect
same,IC100,Candida albicans; C. albicans,>125 mg/L
same,IC50,"Candida albicans; Candida albicans, C. albicans",> 125 µg/mL
same,effect on growth,Candida albicans; highest concentration tested,no effect
same,IC100,Streptococcus pyogenes; S. pyogenes,>125 mg/L
same,IC50,"Streptococcus pyogenes; Streptococcus pyogenes, S. pyogenes",> 125 µg/mL
same,effect on growth,Streptococcus pyogenes; highest concentration tested,no effect
same,IC100 value,[3]; 24 hours of treatment,100 µg/mL
same,IC100,"[3]; N. gonorrhoeae, agar, 24 hours",100 mg/L
same,IC50,"[3]; N. gonorrhoeae, agar, 24 hours, read-out: IC50",50 µg/mL
same,IC50,"[3]; Neisseria, CDC98, 24 hours of treatment, read-out: IC50 value",50 µg/mL
same,selectivity of growth inhibition,[3]; versus the other microorganisms tested,selectively inhibited

# — patent publication US7094809B2, “Method of treating subject infected with Neisseria gonorrhea” (Northeastern Ohio Universities College of Medicine, priority 2000, dated 2006)
